# In patent US7998952B2, “Thiolactams and uses thereof” (Millennium Pharmaceuticals, Inc., priority 2008, dated 2011):
# Biological target: T1, recombinant human PLK1[2-369]T210D (Homo sapiens, UniProt P53350, T210D)
# T1 construct: recombinant human PLK1[2-369]T210D; Smt (SUMO) fusion partner (N, cleaved yes); host or cells: E. coli
# Assay: PLK1 DELFIA Kinase Assay
# Format: biochemical
# Conditions: 50 μM ATP, 2 μM peptide substrate, 0.3 nM enzyme, 90 minutes at room temperature
# In short: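 E. coli-expressed human PLK1, cleaved from an Smt fusion after Ni2+ purification, is reacted with or without inhibitor for 90 minutes at room temperature and stopped with EDTA. Product is captured on Neutravidin plates and quantified by europium DELFIA time-resolved fluorescence.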
# T1 sequence (P53350 2-369 T210D): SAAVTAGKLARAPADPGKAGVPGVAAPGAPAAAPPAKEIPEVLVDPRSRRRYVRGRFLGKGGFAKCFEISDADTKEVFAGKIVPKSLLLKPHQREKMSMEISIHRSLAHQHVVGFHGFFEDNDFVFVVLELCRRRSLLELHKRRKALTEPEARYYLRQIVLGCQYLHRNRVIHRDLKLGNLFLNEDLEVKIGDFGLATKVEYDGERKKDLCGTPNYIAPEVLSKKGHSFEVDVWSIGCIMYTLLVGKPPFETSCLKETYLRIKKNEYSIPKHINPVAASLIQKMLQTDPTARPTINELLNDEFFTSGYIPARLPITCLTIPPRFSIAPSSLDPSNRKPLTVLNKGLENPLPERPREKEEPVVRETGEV
row,IC50 [nM],Compound
1,< 5,"S=C1Cc2cnc(Nc3cncc(CCN4CCOCC4)c3)nc2-c2ccc(Cl)cc2N1 [Compound I-78, 9-chloro-2-{[5-(2-morpholin-4-ylethyl)pyridin-3-yl]amino}-5,7-dihydro-6H-pyrimido[5,4-d][1]benzazepine-6-thione]"
2,5 to 25,"Cc1ncc(CCCN(C)C)cc1Nc1ncc2c(n1)-c1ccc(C#N)cc1NC(=S)C2 [Compound I-79, 2-({5-[3-(dimethylamino)propyl]-2-methylpyridin-3-yl}amino)-6-thioxo-6,7-dihydro-5H-pyrimido[5,4-d][1]benzazepine-9-carbonitrile]"
3,< 5,"Cc1nc(NC2CCN(C)CC2)ccc1Nc1ncc2c(n1)-c1ccc(C3CC3)cc1NC(=S)C2 [Compound I-80, 9-cyclopropyl-2-({2-methyl-6-[(1-methylpiperidin-4-yl)amino]pyridin-3-yl}amino)-5,7-dihydro-6H-pyrimido[5,4-d][1]benzazepine-6-thione]"
4,< 5,"Cc1ccc(Nc2ncc3c(n2)-c2ccc(Cl)cc2NC(=S)C3)c(C)n1 [Compound I-81, 9-chloro-2-[(2,6-dimethylpyridin-3-yl)amino]-5,7-dihydro-6H-pyrimido[5,4-d][1]benzazepine-6-thione]"
5,5 to 25,"Cc1nc(N2CCCCC2)ccc1Nc1ncc2c(n1)-c1ccc(Cl)cc1NC(=S)C2 [Compound I-82, 9-chloro-2-[(2-methyl-6-piperidin-1-ylpyridin-3-yl)amino]-5,7-dihydro-6H-pyrimido[5,4-d][1]benzazepine-6-thione]"
6,5 to 25,"Cc1nc(N2CCOCC2)ccc1Nc1ncc2c(n1)-c1cc(CCCN(C)C)c(Cl)cc1NC(=S)C2 [Compound I-83, 9-chloro-10-[3-(dimethylamino)propyl]-2-[(2-methyl-6-morpholin-4-ylpyridin-3-yl)amino]-5,7-dihydro-6H-pyrimido[5,4-d][1]benzazepine-6-thione]"
7,< 5,"Cc1ncc(C2CCN(CCF)CC2)cc1Nc1ncc2c(n1)-c1ccc(Cl)cc1NC(=S)C2 [Compound I-84, 9-chloro-2-({5-[1-(2-fluoroethyl)piperidin-4-yl]-2-methylpyridin-3-yl}amino)-5,7-dihydro-6H-pyrimido[5,4-d][1]benzazepine-6-thione]"
8,< 5,"Cc1nc(NC2CCNCC2)ccc1Nc1ncc2c(n1)-c1ccc(Cl)cc1NC(=S)C2 [Compound I-85, 9-chloro-2-{[2-methyl-6-(piperidin-4-ylamino)pyridin-3-yl]amino}-5,7-dihydro-6H-pyrimido[5,4-d][1]benzazepine-6-thione]"
9,< 5,"Cc1nc2c(cc1Nc1ncc3c(n1)-c1ccc(C(F)(F)F)cc1NC(=S)C3)CN(C)CC2 [Compound I-86, 2-[(2,6-dimethyl-5,6,7,8-tetrahydro-1,6-naphthyridin-3-yl)amino]-9-(trifluoromethyl)-5,7-dihydro-6H-pyrimido[5,4-d][1]benzazepine-6-thione]"
10,< 5,"Cc1ncc(CCN2CCCCC2)cc1Nc1ncc2c(n1)-c1ccc(C(F)(F)F)cc1NC(=S)C2 [Compound I-87, 2-{[2-methyl-5-(2-piperidin-1-ylethyl)pyridin-3-yl]amino}-9-(trifluoromethyl)-5,7-dihydro-6H-pyrimido[5,4-d][1]benzazepine-6-thione]"
11,< 5,"Cc1nc(N(C)CCCN(C)C)ccc1Nc1ncc2c(n1)-c1ccc(C(F)(F)F)cc1NC(=S)C2 [Compound I-88, 2-({6-[[3-(dimethylamino)propyl](methyl)amino]-2-methylpyridin-3-yl}amino)-9-(trifluoromethyl)-5,7-dihydro-6H-pyrimido[5,4-d][1]benzazepine-6-thione]"
12,< 5,"Cc1ncc(CCCCN(C)C)cc1Nc1ncc2c(n1)-c1ccc(Cl)cc1NC(=S)C2 [Compound I-89, 9-chloro-2-({5-[4-(dimethylamino)butyl]-2-methylpyridin-3-yl}amino)-5,7-dihydro-6H-pyrimido[5,4-d][1]benzazepine-6-thione]"
13,< 5,"Cc1ncc(CCCN)cc1Nc1ncc2c(n1)-c1ccc(C(F)(F)F)cc1NC(=S)C2 [Compound I-90, 2-{[5-(3-aminopropyl)-2-methylpyridin-3-yl]amino}-9-(trifluoromethyl)-5,7-dihydro-6H-pyrimido[5,4-d][1]benzazepine-6-thione]"
14,< 5,"Cc1nc(NC2CCN(C)CC2)ccc1Nc1ncc2c(n1)-c1ccc(C(F)(F)F)cc1NC(=S)C2 [Compound I-92, 2-({2-methyl-6-[(1-methylpiperidin-4-yl)amino]pyridin-3-yl}amino)-9-(trifluoromethyl)-5,7-dihydro-6H-pyrimido[5,4-d][1]benzazepine-6-thione]"
15,5 to 25,"Cc1ncccc1Nc1ncc2c(n1)-c1cc(CCCN(C)C)c(Cl)cc1NC(=S)C2 [Compound I-93, 9-chloro-10-[3-(dimethylamino)propyl]-2-[(2-methylpyridin-3-yl)amino]-5,7-dihydro-6H-pyrimido[5,4-d][1]benzazepine-6-thione]"
16,< 5,"Cc1ncc(Nc2ncc3c(n2)-c2ccc(Cl)cc2NC(=S)C3)cc1CCCN(C)C [Compound I-94, 9-chloro-2-({5-[3-(dimethylamino)propyl]-6-methylpyridin-3-yl}amino)-5,7-dihydro-6H-pyrimido[5,4-d][1]benzazepine-6-thione]"
17,< 5,"Cc1nc(N(C)C2CCN(C)C2)ccc1Nc1ncc2c(n1)-c1ccc(C(F)(F)F)cc1NC(=S)C2 (stereo not drawn) [Compound I-95, 2-({2-methyl-6-[methy(1-methylpyrrolidin-3-yl)amino]pyridin-3-yl}amino)-9-(trifluoromethyl)-5,7-dihydro-6H-pyrimido[5,4-d][1]benzazepine-6-thione]"
18,< 5,"Cc1nc2c(cc1Nc1ncc3c(n1)-c1ccc(Cl)cc1NC(=S)C3)CC(N(C)C)CC2 (stereo not drawn) [Compound I-96, 9-chloro-2-{[6-(dimethylamino)-2-methyl-5,6,7,8-tetrahydroquinolin-3-yl]amino}-5,7-dihydro-6H-pyrimido[5,4-d][1]benzazepine-6-thione]"
19,5 to 25,"Cc1nc(NCCN(C)C)ccc1Nc1ncc2c(n1)-c1ccc(Cl)cc1NC(=S)C2 [Compound I-97, 9-chloro-2-[(6-{[2-(dimethylamino)-ethyl]amino}2-methylpyridin-3-yl)amino]-5,7-dihydro-6H-pyrimido[5,4-d][1]benzazepine-6-thione]"
20,> 25,"Cc1ccnc(C)c1Nc1ncc2c(n1)-c1ccc(C(F)(F)F)cc1NC(=S)C2 [Compound I-98, 2-[(2,4-dimethylpyridin-3-yl)amino]-9-(trifluoromethyl)-5,7-dihydro-6H-pyrimido[5,4-d][1]benzazepine-6-thione]"
21,< 5,"Cc1ncc(CCN(C)C)cc1Nc1ncc2c(n1)-c1ccc(Cl)cc1NC(=S)C2 [Compound I-99, 9-chloro-2-({5-[2-(dimethylamino)-ethyl]-2-methylpyridin-3-yl}amino)-5,7-dihydro-6H-pyrimido[5,4-d][1]benzazepine-6-thione]"
22,< 5,"Cc1nc(N2CCOCC2)ccc1Nc1ncc2c(n1)-c1ccc(C(F)(F)F)cc1NC(=S)C2 [Compound I-100, 2-[(2-methyl-6-morpholin-4-ylpyridin-3-yl)amino]-9-(trifluoromethyl)-5,7-dihydro-6H-pyrimido[5,4-d][1]benzazepine-6-thione]"
23,5 to 25,"Cc1nc(CCCN(C)C)ccc1Nc1ncc2c(n1)-c1ccc(C(F)(F)F)cc1NC(=S)C2 [Compound I-101, 2-({6-[3-(dimethylamino)propyl]-2-methylpyridin-3-yl}amino)-9-(trifluoromethyl)-5,7-dihydro-6H-pyrimido[5,4-d][1]benzazepine-6-thione]"
24,5 to 25,"CC(C)(C)C(=O)Nc1ccc(Nc2ncc3c(n2)-c2ccc(Cl)cc2NC(=S)C3)cn1 [Compound I-102, N-{5-[(9-chloro-6-thioxo-6,7-dihydro-5H-pyrimido[5,4-d][1]benzazepin-2-yl)amino]pyridin-2-yl}-2,2-dimethylpropanamide]"
25,< 5,"Cc1ncc(N2CCN(C)CC2)cc1Nc1ncc2c(n1)-c1ccc(Cl)cc1NC(=S)C2 [Compound I-103, 9-chloro-2-{[2-methyl-5-(4-methylpiperazin-1-yl)pyridin-3-yl]amino}-5,7-dihydro-6H-pyrimido[5,4-d][1]benzazepine-6-thione]"
26,< 5,"CN(C)CCc1cncc(Nc2ncc3c(n2)-c2ccc(Cl)cc2NC(=S)C3)c1 [Compound I-104, 9-chloro-2-({5-[2-(dimethylamino)ethyl]pyridin-3-yl}amino)-5,7-dihydro-6H-pyrimido[5,4-d][1]benzazepine-6-thione]"
27,< 5,"Cc1nc(N(C)C2CCN(C)CC2)ccc1Nc1ncc2c(n1)-c1ccc(Cl)cc1NC(=S)C2 [Compound I-105, 9-chloro-2-({2-methyl-6-[methyl(1-methylpiperidin-4-yl)amino]pyridin-3-yl}amino)-5,7-dihydro-6H-pyrimido[5,4-d][1]benzazepine-6-thione]"
28,< 5,"Cc1nc(N2CCCC2)ccc1Nc1ncc2c(n1)-c1ccc(Cl)cc1NC(=S)C2 [Compound I-106, 9-chloro-2-[(2-methyl-6-pyrrolidin-1-ylpyridin-3-yl)amino]-5,7-dihydro-6H-pyrimido[5,4-d][1]benzazepine-6-thione]"
29,< 5,"CN1CCN(c2cncc(Nc3ncc4c(n3)-c3ccc(Cl)cc3NC(=S)C4)c2)CC1 [Compound I-107, 9-chloro-2-{[5-(4-methylpiperazin-1-yl)pyridin-3-yl]amino}-5,7-dihydro-6H-pyrimido[5,4-d][1]benzazepine-6-thione]"
30,< 5,"Cc1nc(N2CCOCC2)ccc1Nc1ncc2c(n1)-c1ccc(Cl)cc1NC(=S)C2 [Compound I-109, 9-chloro-2-[(2-methyl-6-morpholin-4-ylpyridin-3-yl)amino]-5,7-dihydro-6H-pyrimido[5,4-d][1]benzazepine-6-thione]"
